Measured values published in patent US20200140560A1, “PROTEASE BASED SWITCH CHIMERIC ANTIGEN RECEPTORS FOR SAFER CELL IMMUNOTHERAPY” (CELLECTIS, priority 2017, published 2020).
Entries after “also recorded” stand apart in the source; their conditions may differ.

Columns and labels:
[1] = tested on: anti-CD22 CAR T-cells co-cultured with Raji target cells; experiment: Cytokine profiling of anti-CD22 CAR T-cells co-cultured with Raji target cells in presence of Asunaprevir; format: cell-based, human; details: various concentrations of ASN, 24 hours co-culture with Raji; FIG. 10
Experimental: FIG. 10: Cytokine quantification after co-culture of anti-CD22 CAR T-cells with target cells as a function of Asunaprevir concentration (see example 6). Data are shown as the mean±SD of duplicates per points.
T-cells were co-cultured with Raji target cells in 12-well culture plates in the presence of various concentrations of ASN for 24 hours. Cells were spun down, and the supernatants were aliquoted and frozen. Cytokine levels in the supernatants were measured with LEGEND plex Human Th Cytokine panel (Biolegend).

[2] = tested on: CD22 positive Raji cells killed by anti-CD22 degron CAR T-cells; experiment: Cytolytic properties of anti-CD22 degron CAR T-cells after wash-out of Asunaprevir; details: 500 nM Asunaprevir, wash-out 48 h, 24 h or 0 h prior to cytotoxicity assay; Raji 3:1; FIGS. 8A and 8B
Experimental: A fraction of the cells is maintained under 500 nM of Asunaprevir (correspond to the no wash-out point).
After 24 h the cells are pelleted, the supernatant is collected for luciferase quantification.

T-cells = experiment: T-cell proliferation in presence of Asunaprevir; format: cell-based, human; details: 100 nM to 1 μM ASN; FIG. 9
Experimental: FIG. 9: Proliferation of T-cells in the presence of increasing concentrations of Asunaprevir (see example 5). The total number of cells at different days cultured in presence of 100 nM, 500 nM or 1000 nM relative to 0 nM ASN is presented. Data are shown as the median of PBMC from 2 donors done in duplicate.
T-cells were cultured in X-Vivo 15 (Lonza) supplemented with 5% human serum hAB (Gemini) and 20 ng/ml IL-2 (Miltenyi) at a density of 1×10^6 cells/ml in presence of various dose (0-1000 nM) of the Asunaprevir protease inhibitor.

[3] = tested on: degron CARs (anti-CD123, anti-CD22) with NS3 protease domain in primary human T-cells; experiment: Surface expression of C-terminal fusion degron CARs in primary human T-cells (flow cytometry, labeled recombinant CD22 or CD123); format: cell-based; details: 500 nM Asunaprevir for 48 h, FIG. 6
Text: FIG. 6: Experimental results obtained with T-cells endowed with the CARs of the present invention. 6A: Percentage of CAR positive T-cells (presentation of anti-CD123 CARs at the surface of the transduced cells) in presence or absence of the protease inhibitor Asunaprevir. 6B: Percentage of CAR positive T-cells (presentation of anti-CD22 CARs at the surface of the transduced cells) in presence or absence of the protease inhibitor Asunaprevir). Controls are T-cells endowed with CARs lacking controlled degradation moiety (high presentation of CARs at the surface of the transduced cells). The percentage of CAR positive cells is measured by flow cytometry. Experimental details are provided in example 2.
3-5 days post transduction T-cells were incubated with or without 500 nM Asunaprevir for 48 h. The proportion of T-cells expressing the CAR at their surface was then quantified using labeled recombinant protein CD22 or CD123 targeted by the CAR (LakePharma).

[4] = tested on: CD22 positive target cells (Raji) killed by degron CAR T-cells; experiment: Cytolytic properties of C-terminal fusion degron CAR T-cells against luciferase-expressing Raji cells with Asunaprevir; details: 500 nM Asunaprevir; T-cells:Raji 3:1; 3 consecutive days; FIG. 7
Experimental: Data are normalized using untransduced human primary T-cells.
After 24 h the cells were pelleted, the supernatant was collected for luciferase quantification and the pelleted cells were resuspended in fresh complete X-vivo (supplemented or not with 500 nM Asunaprevir) media and 0.5×10^6 target cells (CD22 positive cells) were added.

[5] = tested on: Raji target cells killed by SWOFF anti-CD22 CAR T-cells (TRAC locus integration); experiment: Cytotoxicity of T-cells with SWOFF anti-CD22 CAR integrated at the TRAC locus against luciferase-expressing Raji cells, Asunaprevir dose response; format: cell-based, human
Text: Data are shown as median with 95% confidence intervals of triplicates per points. N=2, performed in triplicates.
T-cells were then passaged the day prior to the transfection/transduction at 1×10^6 cells/ml in complete media. On the day of transfection/transduction, the cells were de-beaded by magnetic separation (EasySep), washed twice in Cytoporation buffer T (BTX Harvard Apparatus, Holliston, Mass.), and resuspended at a final concentration of 28×10^6 cells/ml in the same solution.
The electroporated cells were then immediately transferred to a 12-well plate containing 1 ml of prewarmed X-vivo-15 serum-free media and incubated for 37° C. for 15 min. The cells were then plated at a concentration of 10,000 cells/well with AAV in a 20 μl total volume of serum-free media (MOI: 1×10^5 vg/cells) in 96-well round bottom plates. […] 100 pL of fresh complete media was then added. Six days after transduction, 0.5×10^6 cells were seeded in a G-Rex 24-well plate (Wilson Wolf) in 5 ml of complete X-vivo-15 media and cultivated for 11 days.
After 24 h, the cells are collected and mixed, and 100 ul of cells was used for luciferase quantification (OneGlo, Promega). The remainder of the cells were pelleted and resuspended in fresh X-vivo 15 media with 5% hAB serum, no 11-2 (supplemented with or without 1-500 nM Asunaprevir), and an additional 0.5×10^6 target cells were added.

## C=C[C@@H]1C[C@]1(NC(=O)[C@@H]1C[C@@H](Oc2ncc(OC)c3ccc(Cl)cc23)CN1C(=O)[C@@H](NC(=O)OC(C)(C)C)C(C)(C)C)C(=O)NS(=O)(=O)C1CC1 [Asunaprevir, asunaprevir]
[1]
  cytokine production: did not result in notable variations
[2]
  CAR cytolytic properties after wash-out of Asunaprevir: controlled by Asunaprevir in a reversible manner
T-cells
  proliferation of the T-cells: no effects
  viability of the T-cells: no effects
[3]; control CARs
  CAR presentation at the surface, control CARs lacking the self-excising degron: did not react
[3]; degron CARs anti-CD123 / anti-CD22
  CAR presentation at the surface of the transduced T-cells population: could be controlled by Asunaprevir
[4]
  CAR cytolytic properties (percentage of CD22 positive target cells killed): could be negatively controlled; also recorded: reduced
[5]; 1 to 500 nM Asunaprevir, T-cells:Raji 3:1, FIG. 14
  CAR T-cells cytolytic properties (luciferase signal of target cells): controlled by addition of Asunaprevir
[5]; Homo sapiens, Raji, read-out: IC50 of control of CAR T-cells cytolytic properties
  IC50: ~15 nM
